According to ChEMBL document CHEMBL1772960, “N,N'-methyleno-didemnin A from the ascidian Trididemnum solidum. Complete NMR assignments and confirmation of the imidazolidinone ring by strategic analysis of 1J(CH)” (J Nat Prod, 2011):
*1 amine or outer side, *2 acyl side, *3 side chain or, on linkers, in order; H or OH if unused. Where a SMILES comes first, the peptide text is derived from it. Bridges are numbered along the chain shown (N, C = ends). [ ]: non-standard residue; d: D form. The star is where a group is joined. X1 = CC[C@H](C)[C@@H](N[*:1])[C@@H](O)CC(=O)O[C@H](C(=O)[C@H](C)C(=O)[*:2])C(C)C; NMeY = CN[C@@H](Cc1ccc(O)cc1)C(=O)O; NMeL = CN[C@@H](CC(C)C)C(=O)O; dNMeL = CN[C@H](CC(C)C)C(=O)O; Pyruvoyl = CC(=O)C(=O)*

System: HCT-116
Experiment: Cytotoxicity against human HCT116 cells assessed as growth inhibition after 72 hrs by MTS assay
Type: functional, cell-based
Conditions: HCT-116, 72 h

## CC[C@H](C)[C@H]1NC(=O)[C@@H](NC(=O)[C@H](CC(C)C)N(C)C(=O)[C@@H]2CCCN2C(=O)C(C)=O)[C@@H](C)OC(=O)[C@H](Cc2ccc(OC)cc2)N(C)C(=O)[C@@H]2CCCN2C(=O)[C@H](CC(C)C)NC(=O)[C@@H](C)C(=O)[C@H](C(C)C)OC(=O)C[C@@H]1O (Pyruvoyl-P[NMeL]T[X1]LP[NMeY](Me); ester 3-C)
  IC50: 24 nM

## CC[C@H](C)[C@H]1NC(=O)[C@@H](NC(=O)[C@@H](CC(C)C)NC)[C@@H](C)OC(=O)[C@H](Cc2ccc(OC)cc2)N(C)C(=O)[C@@H]2CCCN2C(=O)[C@H](CC(C)C)NC(=O)[C@@H](C)C(=O)[C@H](C(C)C)OC(=O)C[C@@H]1O [DIDEMNIN A] (H-[dNMeL]T[X1]LP[NMeY](Me); ester 2-C)
  IC50: 32 nM
